The values that follow come from PMC8490515, “Neuromedin B receptor stimulation of Cav3.2 T-type Ca^2+ channels in primary sensory neurons mediates peripheral pain hypersensitivity” (Theranostics, 2021).

For experiment [1], the system named is sustained delayed rectifier K^+ channel (IDR). In words: Sustained delayed rectifier K+ currents (IDR) in TG neurons. The format is cell-based, mouse. As to conditions: 100 nM. As to the method:
All the procedures performed in this study were carried out in accordance with NIH guidelines and were approved by the Institutional Animal Care and Use Committee of Soochow University. TG neurons were dissociated as previously described, [23]. Briefly, TGs were harvested from 8- to 10-week-old ICR mice of either sex, cut into small pieces and treated with 2 mg/mL collagenase D (Roche) for 20 min followed by 1.5 mg/mL trypsin (Sigma) at 37 °C for 15 min. Cells were dissociated via gentle trituration with fire-polished sterilized Pasteur pipettes and centrifuged through a 15% BSA gradient to remove debris and nonneuronal cells. TG neurons were resuspended in neurobasal A (Thermo Fisher) supplemented with B27 (Thermo Fisher) and transferred onto Matrigel-coated coverslips. Patch clamp recordings were conducted 2 to 6 h after plating. In shRNA-treated knockdown experiments, TG cells were replated onto coverslips 48 h after infection.
Standard whole-cell recordings were made at room temperature (22-23 °C) as described previously, [25]. Recording electrodes were pulled from borosilicate glass microcapillary tubes (Sutter Instruments) and had resistances from 3 to 5 MΩ when filled with internal solution. Recordings were obtained using a MultiClamp 700B amplifier (Axon Instruments). […]

Experiment [2] has as its system mechanical hypersensitivity in mice. Description: von Frey test after intra-TG injection of Nmb. Format: in vivo, mouse. Here is the method: (§1) Mice were housed on a 12 h light/dark cycle, maintained in a humidity- and temperature-controlled room with water available ad libitum and were acclimated to the experimenter for 2 d before the first behavioural observations. Experimenters were blinded to the treatment or genotypes of the mice. As described previously, [31], an Orofacial Stimulation Test (Ugo Basile, Italy) was used for the measurement of hypersensitivity to the mechanical stimulation of the trigeminal area. Briefly, the mice initially underwent one week of adaptation trainings after a 12 h fasting food period. Each mouse was then placed in a cage in which there was an Orofacial Stimulation Test system. After the mouse was given 10 min to familiarize itself with its environment, the drinking window was opened and the testing mouse was subsequently timed for 10 min to allow drinking the milk. The contact number and total duration of time the mouse spent acquiring the reward were analyzed with the ORO software.
For experiments that several time points are needed to be checked in 24 h, von Frey test was used, as orofacial stimulation test can be checked only once a day, [32]. For the von Frey test, the mice were placed in metal mesh boxes and allowed 30 min for habituation before examination. Mechanical hypersensitivity was assessed as described in previous studies, [33]. In brief, the threshold was assessed with a set of von Frey hairs (0.02-2.56 g, Stoelting) applied to the whisker pad in an ascending series of trials, with three separate von Frey stimulations applied per series. The threshold was determined when mice moved their heads away briskly and strongly from at least one of the three stimuli. Dixon's up-down method was used to determine the 50% probability of escape threshold. For thermal test, a heat stimulus was applied to the maxillary whisker pad skin by radiant heat (IITC Life Science). Heat sensitivity was expressed as head-withdrawal latency (HWL). The radiant heat intensity was adjusted so that basal HWL is between 10-15 s, with a cut-off of 18 s to prevent tissue damage. Chronic inflammatory pain was induced by subcutaneous injection of 20 μL of complete Freund's adjuvant (CFA) into the left side of the buccal pad. The drugs (Nmb, BIM23042, Z941, or TTA-P2) were applied through a percutaneous approach by injecting the TG with a 30 G needle inserted through the infraorbital foramen, infraorbital canal and foramen rotundum. The tip of the needle terminated at the medial part of the TG, and a volume of 5 μL reagent was slowly delivered, [34]. Mice received intra-TG injection of 5'-cholesteryl-modified and 6-FAM-modified Cav3.2 siRNA (Cav3.2-siRNA, 5 μg) or a scrambled negative control siRNA (NC-siRNA) (RiboBio, Guangzhou) 2 d after the CFA injection. siRNA was mixed with polyethyleneimine (PEI, Fermentas Inc.) for 10 min before being delivered. PEI was used as a delivery vehicle to prevent degradation and enhance cell membrane penetration of siRNAs, [36].

For experiment [3] the test system is unchanged. Description: Orofacial stimulation (operant) test, total contact time. Format: in vivo, mouse. As to conditions: 1 h after intra-TG 1 nmol Nmb. Here is the method:
as §1, with “After the mouse was given 10 min to familiarize itself with its environment, the drinking window was opened and the testing mouse was subsequently timed for 10 min to allow drinking the milk.” left out
For experiments that several time points are needed to be checked in 24 h, von Frey test was used, as orofacial stimulation test can be checked only once a day, [32]. […] Mechanical hypersensitivity was assessed as described in previous studies, [33]. In brief, the threshold was assessed with a set of von Frey hairs (0.02-2.56 g, Stoelting) applied to the whisker pad in an ascending series of trials, with three separate von Frey stimulations applied per series. The threshold was determined when mice moved their heads away briskly and strongly from at least one of the three stimuli. […]

The test system of experiment [4] is p42 MAPK in Rat-1 cells transfected with the Nmb-preferring receptor. As to conditions: PKC-independent and pertussis toxin-insensitive; ref [62]; cited from earlier work. The source says: In contrast, stimulation of PKC either by insulin-like growth factor in dorsal root ganglion neurons or by angiote ...

On to Neuromedin B [Nmb], for which, in experiment [1], the “decrease of IDR” value is reported as 1.9 ± 1.6%. Besides, the acute mechanical hypersensitivity entry in experiment [2] (intra-TG 0.1 nmol) is given as “no such effects”. In addition, in experiment [2] (intra-TG 1 nmol or 5 nmol, n = 6 - 8 mice per group), the acute mechanical hypersensitivity entry was “significantly induced profound hypersensitivity to acute mechanical pain”. In addition, in experiment [2] (intra-TG 5 nmol), the “mechanical hypersensitivity, 5 nmol vs 1 nmol” value is reported as “stronger effect than that of 1 nmol”; the “onset of mechanical hypersensitivity” value came to 1 h; the “recovery from mechanical hypersensitivity” value amounted to 6 h; the “time at which mechanical hypersensitivity was maintained” value is given as 3 h. Also, the total contact time entry in experiment [3] was “significantly reduced”. Also, the “p42 MAPK activation” value in experiment [4] is on record as “activated p42 MAPK”.
